Results on two molecules are retold here after patent US20050020544A1, “Bicyclic CB2 cannabinoid receptor ligands” (priority 2002, published 2005).

Experiment [1] has as its target T1, human CB1 receptor (Homo sapiens, UniProt P21554).
T1 construct: purchased Perkin Elmer/NEN; host or cells: HEK-293 cells, stably transfected (membranes)
Kind of experiment: biochemical. In kind it is binding. To be noted: CB1 IC50. In outline:
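Displacement of [3H]CP55940 from membranes of HEK-293 cells stably expressing human CB1, in 50 mM Tris-HCl, 2.5 mM EDTA, 5 mM MgCl2, 1 mg/ml BSA, pH 7.4, 0.1% DMSO; 1.5 h at 30° C, then filtration.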

A further experiment concerns the target human CB2 receptor (Homo sapiens, UniProt P34972). Kind of experiment: Adenylylcyclase assay: forskolin-activated cAMP in CB2 transfected HEK-293 cells. To be noted: HEK293, read-out: % inhibition at 1 μM; CB2 receptor transfected HEK-293, 1 μM forskolin. In kind it is cell-based. The protocol:
(§1) Cannabinoids and derivatives bind to G-protein-coupled CB1 and CB2 receptors and exert their activity via the inhibition of adenylylcyclase activity. An adenylylcyclase assay forms a basis for the functional analysis of the compounds by determining their capacity to inhibit or promote forskolin-activated cAMP production. The assay is carried out according to Chin et al. (Chin, C. N. et al., J. Neurochem. 70: 366-73, 1998). Briefly, HEK-293 human kidney cells (ATCC#CRL-1573) stably transfected with either the human CB1 or CB2 receptor (cDNA) were grown in DMEM supplemented with 10% fetal calf serum, 1% Penicillin-Streptomycin and 2 mM L-glutamine. Cells were seeded in 24 wells plate at 5×10^4 cells/well and incubated for 48 hours. Medium was then removed and the adherent cells were washed with PBS. Two hundred μl of serum free medium supplemented with 0.2 mM Ro 20-1724, 0.25% BSA, and 20 mM HEPES was then added to each well. The cells were then activated with 1 μM forskolin in presence of the bicyclic test compounds in concentrations ranging from 10 pM up to 1 μM. The activated cells were then incubated at 37° C. for 20 minutes and the reaction terminated with 1.2 M HCl to a final concentration of 0.1 M. Cells were lyzed by freeze and thaw and the lysate was neutralized with 2 M HEPES, pH 7.5. cAMP was measured in 50 μl aliquots using the [^3H]-cAMP assay system (Amersham).
(§2) This experiment was first performed on CB2 receptor transfected cells.

Experiment [2] deals with T1, human CB1 receptor. Kind of experiment: Adenylylcyclase assay: forskolin-activated cAMP in CB1 transfected HEK-293 cells. In kind it is cell-based. The protocol:
as §1, §2

A further experiment concerns male Sprague-Dawley rats. Kind of experiment: Chronic constriction nerve injury, neuropathic pain (Von Frey filaments). Format: in vivo, rat. To be noted: 4 mg/kg i.p., 15 minutes. From the text:
The aim of this study was to assess the potential analgesic effects of the novel bicyclic CB2 binding compounds in an animal model of neuropathic pain. A peripheral monopathy was induced in the right hind limb of rats following a chronic constriction of the sciatic nerve (Bennet, G. J. & Xie, Y-K., Pain 33: 87-107, 1988). The development of mechanical allodyna was monitored using an established behavioral test (Von Frey filaments).
Pre-surgery baseline values were ascertained as the mean of 2 pre-surgery values. Once the baseline values had been established, the animals were surgically prepared by constricting the right sciatic nerve with 4 chromic cat gut loose ligatures.
The design was randomized, performed in a masked fashion as to whether drug or vehicle is being given. The animals, male Sprague-Dawley rats (average body weight 240-290 g), were allowed to acclimatize to the behavioral testing equipment prior to testing. On the testing day, the animals, at least six per treatment group, were given i.p. a single dose of one of the test compounds in a volume of 2.5 ml/kg. Fifteen minutes later, a series of Von Frey filaments (pre-calibrated prior to testing) were applied to the plantar surface of the hind paw, from below. The filaments were applied in ascending order starting with the weakest force and the withdrawal threshold for both the ipsilateral and contralateral hind paws was evaluated. Each filament was indented on the mid-plantar surface of the foot to the point where it just starts to bend; this is repeated approximately 8-10 times per filament at a frequency of approximately 1 Hz. The withdrawal threshold is defined as being the lowest force of two or more consecutive Von Frey's filaments to elicit a reflex withdrawal response (i.e. a brief paw flick) and is measured in grams.
The results are expressed as % increase in the threshold of response to Von Frey's filaments in the test compound treated group versus the vehicle treated animals and per definition the vehicle treated group yields a null baseline value. The black column represents the morphine treated animals (4 mg/kg), the gray and the dotted column bars represent two doses of compound A (0.5 and 1 mg/kg respectively).

For experiment [3], the system named is ICR male mice. Kind of experiment: Tail flick model for acute peripheral pain, i.p. Format: in vivo, mouse. The note with it: 5 mg/kg i.p. The protocol: (§3) ICR male mice (20-30 g average body weight, Harlan, Israel) were injected i.p. at the volume dose of 5 ml/kg. Each treatment group contained at least 6 animals. Morphine HCl was used as positive control at the final dose of 5 mg/kg. Its vehicle, saline, was also included as control. The test compounds were dissolved in CREMOPHOR EL®:ethanol and diluted 1:20 in saline prior to injection, this second type of vehicle was also included as negative control. The final dose injected varied from 0.1 to 10 mg/kg. At predetermined time points after treatment injection, the animals were placed in the tail flick system (Socrel, model DS 20). Animals were gently held while their tails were located above the photoelectric cell. The tails were then illuminated (21V) at 2 cm from the distal tip and the latency time, measured in seconds, was recorded in duplicates. At the end of the study, the animals were euthanized by i.p. injection of 100 mg/kg sodium pentobarbitone.
Two parameters were used to analyze the results, the latency time and the % of animals showing analgesia. […] The results in both cases are expressed as mean±SE. The differences between the latency times or the % of animals showing analgesia among various treatment groups was analyzed by analysis of variance (ANOVA) followed by post-hoc Tukey's test (for latency) or Fisher's exact test (for % animals). A value of p<0.05 is considered to be statistically significant.

The next experiment has as its system Male Sprague Dawley rats. Kind of experiment: Inflammatory pain: carrageenan paw edema in rats, thermal and mechanical stimuli. The note with it: 5 mg/kg, three hours. In kind it is in vivo, rat. The protocol:
Male Sprague Dawley rats (200 g average body weight, Harlan, Israel) are transiently sedated by placement on dry ice for the duration of the injections. […] Before induction of inflammatory pain and three hours after injection, the animals reactions to pain stimuli were tested in two systems. The first stimulus was thermal and assessed by the Plantar Test according to Hargreaves, using Ugo Basile Model 7370. The scale was set to an intensity of 50 arbitrary units. The latency time till the animal lift a paw as a reaction to the thermal stimulus was recorded for both the inflamed and non-inflamed hind paws. The second stimulus was mechanical (tactile) and assessed using a Dynamic Plantar Sesthesiomether (Ugo Basile Model 73400-002).
The results are measured as the differences between the two hind paws at time 0 and 3 hours both as ALT, for the latency time in the thermal part of the study, and as ΔForce, for the mechanical part of the study.

Experiment [4] relates to ICR male mice. Kind of experiment: Development of tolerance on repeated administration, tail flick model. The note with it: 5 mg/kg twice daily i.p. The protocol: as §3
Tolerance was assessed in the tail flick model above described. Briefly, the test compounds were administered twice daily i.p. for up to 10 days to groups of 10 animals each. The noxious pain threshold was measured as previously described in example 13 thirty minutes after the first drug administration on days 1, 4, 8 and 10. Results are expressed as mean latency time till the animal flicked its tail±SE. The differences between the latency times or the % of animals showing analgesia among various treatment groups was analyzed by analysis of variance (ANOVA) followed by post-hoc Tukey's test (for latency) or Fisher's exact test (for % animals). A value of p<0.05 is considered to be statistically significant.

pIC50: −log10 of the molar value.

T1 sequence (P21554 whole entry): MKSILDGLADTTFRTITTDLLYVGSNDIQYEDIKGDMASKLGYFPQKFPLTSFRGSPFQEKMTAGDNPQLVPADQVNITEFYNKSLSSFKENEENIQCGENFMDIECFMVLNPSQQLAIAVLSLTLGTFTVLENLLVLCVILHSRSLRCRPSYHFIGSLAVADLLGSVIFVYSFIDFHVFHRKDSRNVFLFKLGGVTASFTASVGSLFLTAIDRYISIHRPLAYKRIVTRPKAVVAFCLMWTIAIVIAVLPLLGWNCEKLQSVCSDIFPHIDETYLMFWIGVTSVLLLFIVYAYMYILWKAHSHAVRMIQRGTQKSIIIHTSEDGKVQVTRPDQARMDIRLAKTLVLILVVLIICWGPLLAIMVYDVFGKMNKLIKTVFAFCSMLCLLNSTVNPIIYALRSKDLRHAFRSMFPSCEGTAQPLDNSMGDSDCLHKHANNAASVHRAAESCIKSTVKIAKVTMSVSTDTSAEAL
Sequence of human CB2 receptor (P34972 whole entry): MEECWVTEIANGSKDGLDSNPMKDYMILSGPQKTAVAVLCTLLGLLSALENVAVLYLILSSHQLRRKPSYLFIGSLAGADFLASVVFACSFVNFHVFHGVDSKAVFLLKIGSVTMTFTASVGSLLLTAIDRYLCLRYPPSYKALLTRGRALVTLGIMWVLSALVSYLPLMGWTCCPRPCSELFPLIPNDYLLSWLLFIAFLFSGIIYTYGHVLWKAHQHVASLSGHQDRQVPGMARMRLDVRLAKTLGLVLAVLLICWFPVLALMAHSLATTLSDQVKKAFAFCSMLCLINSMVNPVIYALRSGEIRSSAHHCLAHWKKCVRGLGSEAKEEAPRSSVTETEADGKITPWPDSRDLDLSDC

`CCCCCCC(C)(C)c1cc(O)c2c(c1)OC(C)(C)[C@@H]1CC=C(CO)C[C@@H]21` [HU-210, 7-hydroxy-Δ^6-tetrahydrocannabinol-1,1-dimethyl-heptyl, reference compound]: the pIC50 (in general, the negative decadic logarithm of the IC50, by convention in mol/L) on human CB1 receptor [1] is 9.41; against human CB1 receptor [2], 9.46. Besides, the inhibition (usually the drop in the measured response relative to a control, in per cent) at 1 µM at human CB2 receptor came to 50%; at human CB1 receptor [2] (HEK293, CB1 transfected HEK-293, 1 μM forskolin, read-out: maximal inhibition at 1 μM), 73%.

Regarding `CN1CC[C@]23c4c5ccc(O)c4O[C@H]2[C@@H](O)C=C[C@H]3[C@H]1C5` [Morphine, reference compound], the “increase in pain threshold (Von Frey) versus vehicle, ipsilateral hind paw” value in the experiment with male Sprague-Dawley rats is reported as 91%. Besides, the latency time came to 7.5 s in the experiment with ICR male mice [3] (30 minutes); 3.9 s in the experiment on ICR male mice [3] (90 minutes); 3.6 s with ICR male mice [3] (five and a half hour); 3.1 s with ICR male mice [3] (two and a half hour); 5.8 s in the experiment with ICR male mice [4] (day 10); 7.5 s with ICR male mice [4] (day one). In addition, the “% animals showing analgesia” value in the experiment with ICR male mice [3] (90 minutes) was “about 40%”. Besides, the “% animals showing increased analgesia” value is given as 17% with ICR male mice [3] (five and an half hours); 88% in the experiment on ICR male mice [3] (half-an hour). In addition, the “ΔForce (tactile stimulus)” value with Male Sprague Dawley rats came out at 2.7 grams. In addition, in the experiment on Male Sprague Dawley rats, the “ΔLT (thermal stimulus)” value was 0 s. For the same molecule, the “% of animals showing increased analgesia” value in the experiment with ICR male mice [4] (day 10) amounted to 30%; in the experiment with ICR male mice [4] (day one), 80%.
